In PubChem BioAssay AID1745844 (Carcinogenic Potency Database (CPDB), 2022):
“And” between values parts separate entries of the source, which are not always exact repeats. Equal values may be shown once. The source made the active and inactive calls. The rule behind the calls is not given here.

System: rodent lifetime carcinogenesis bioassay, tumor incidence TD50
Assay: carcinogenic potency in animals, long-term in vivo studies, CPDB compilation (AID 1745844)
[1] = mouse, strain A/He, females, in feed, site: liver, lesion: hepatoma, dosed 104 weeks, study length 104 weeks
[2] = mouse, strain A/He, females, in feed, site: lung, lesion: one or several types, types not named, dosed 104 weeks, study length 104 weeks
[3] = mouse, strain C3HfB, females, in feed, site: lung, lesion: one or several types, types not named, dosed 104 weeks, study length 104 weeks
[4] = mouse, strain CFLP, females, in feed, site: liver, lesion: hepatocellular tumor, dosed 78 weeks, study length 78 weeks
[5] = mouse, strain B6AKF1, females, oral dosing, site: lung, lesion: adenoma, dosed 76 weeks, study length 76 weeks

For `C#C[C@]1(O)CC[C@H]2[C@@H]3CCc4cc(OC)ccc4[C@H]3CC[C@@]21C` (tested in a mixture with another compound), the TD50 [1] was 25.2 mg/kg/day (inactive), the carcinogen call [1] was “negative (inactive)” and the TD50 [2] was 4.62 mg/kg/day (inactive) and 4.31 mg/kg/day (inactive). For the same compound, the carcinogen call [2] was “negative (inactive)”, the TD50 (mouse, strain BALB/c, females, in feed, site: several sites, sites named in the paper, lesion: squamous-cell carcinoma, dosed 86 weeks, study length 86 weeks) was 2 mg/kg/day and the carcinogen call (mouse, strain BALB/cHe, females, in feed, site: lung, lesion: one or several types, types not named, dosed 104 weeks, study length 104 weeks) was “negative (inactive)”. The carcinogen call (mouse, strain C3H/He (MTV+), females, in feed, site: liver, lesion: hepatoma, dosed 104 weeks, study length 104 weeks) was “negative (inactive)”, the TD50 (mouse, strain C3HfB, females, in feed, site: all sites, lesion: fibrosarcoma, dosed 104 weeks, study length 104 weeks) was 3.93 mg/kg/day (inactive) and the carcinogen call (mouse, strain C3HfB, females, in feed, site: liver, lesion: hepatoma, dosed 104 weeks, study length 104 weeks) was “negative (inactive)”. For the same compound, the TD50 [3] was 27.6 mg/kg/day (inactive), the carcinogen call [3] was “negative (inactive)” and the TD50 (mouse, strain C57BL/He, females, in feed, site: hypophysis, lesion: chromophobe adenoma, dosed 104 weeks, study length 104 weeks) was 1.75 mg/kg/day and 1.82 mg/kg/day. For the same compound, the carcinogen call (mouse, strain C57BL/He, females, in feed, site: liver, lesion: hepatoma, dosed 104 weeks, study length 104 weeks) was “negative (inactive)”, the TD50 (mouse, strain C57BL/He, females, in feed, site: lung, lesion: one or several types, types not named, dosed 104 weeks, study length 104 weeks) was 20.7 mg/kg/day (inactive) and the carcinogen call (mouse, strain C57L/He x 129/Rr x C3HeB/De x SWR/Ly, females, by gavage, site: any site (literature study), lesion: several types, types named in the paper, dosed 69 weeks, study length 69 weeks) was “negative (inactive)”. For the same compound, the TD50 (mouse, strain C57L/He x 129/Rr x C3HeB/De x SWR/Ly, females, by gavage, site: any site (literature study), lesion: several types, types named in the paper, dosed 69 weeks, study length 82 weeks) was 0.332 mg/kg/day (inactive), the carcinogen call (mouse, strain C57L/He x 129/Rr x C3HeB/De x SWR/Ly, females, by gavage, site: lung, lesion: one or several types, types not named, dosed 69 weeks, study length 69 weeks) was “negative (inactive)” and the TD50 (mouse, strain C57L, females, by gavage, site: pituitary gland, lesion: one or several types, types not named, dosed 89 weeks, study length 89 weeks) was 0.151 mg/kg/day. For the same compound, the TD50 [4] was 143 mg/kg/day (inactive), the carcinogen call [4] was “negative (inactive)” and the carcinogen call (mouse, strain CFLP, males, in feed, site: liver, lesion: hepatocellular tumor, dosed 78 weeks, study length 78 weeks) was “negative (inactive)”. For the same compound, the TD50 (mouse, strain Swiss Webster, females, by gavage, site: liver, lesion: hepatocellular tumor, dosed 65 weeks, study length 80 weeks) was 20.8 mg/kg/day (inactive).
In the case of `CCCCOCCOCCOCc1cc2c(cc1CCC)OCO2`, the carcinogen call (mouse, strain B6AKF1, females, oral dosing, site: liver, lesion: hepatoma, dosed 76 weeks, study length 76 weeks) is reported as “negative (inactive)”, the TD50 [5] is reported as 265 mg/kg/day and the carcinogen call [5] is reported as “negative (inactive)”. For the same compound, the carcinogen call (mouse, strain B6AKF1, males, oral dosing, site: any site (literature study), lesion: several types, types named in the paper, dosed 76 weeks, study length 76 weeks) was “negative (inactive)”, the carcinogen call (mouse, strain B6AKF1, males, oral dosing, site: liver, lesion: hepatoma, dosed 76 weeks, study length 76 weeks) was “negative (inactive)” and the carcinogen call (mouse, strain B6AKF1, males, oral dosing, site: lung, lesion: adenoma, dosed 76 weeks, study length 76 weeks) was “negative (inactive)”. The carcinogen call (mouse, strain B6C3F1, females, in feed, site: any site (literature study), lesion: several types, types named in the paper, dosed 112 weeks, study length 112 weeks) was “negative (inactive)”, the TD50 (mouse, strain B6C3F1, females, in feed, site: liver, lesion: hepatocellular adenoma + hepatocellular carcinoma + neoplastic nodule, dosed 112 weeks, study length 112 weeks) was 3260 mg/kg/day and the carcinogen call (mouse, strain B6C3F1, females, oral dosing, site: any site (literature study), lesion: one or several types, types not named, dosed 76 weeks, study length 76 weeks) was “negative (inactive)”. The TD50 (mouse, strain B6C3F1, females, oral dosing, site: any site (literature study), lesion: several types, types named in the paper, dosed 76 weeks, study length 76 weeks) was 83.1 mg/kg/day, the carcinogen call (mouse, strain B6C3F1, females, oral dosing, site: liver, lesion: hepatoma, dosed 76 weeks, study length 76 weeks) was “negative (inactive)” and the carcinogen call (mouse, strain B6C3F1, females, oral dosing, site: lung, lesion: several types, types named in the paper, dosed 76 weeks, study length 76 weeks) was “negative (inactive)”. The carcinogen call (mouse, strain B6C3F1, males, in feed, site: any site (literature study), lesion: several types, types named in the paper, dosed 112 weeks, study length 112 weeks) was “negative (inactive)”, the TD50 (mouse, strain B6C3F1, males, oral dosing, site: all sites, lesion: reticulum-cell sarcoma, dosed 76 weeks, study length 76 weeks) was 34.8 mg/kg/day and the TD50 (mouse, strain B6C3F1, males, oral dosing, site: liver, lesion: hepatoma, dosed 76 weeks, study length 76 weeks) was 186 mg/kg/day (inactive) and 98.5 mg/kg/day. The carcinogen call (mouse, strain B6C3F1, males, oral dosing, site: lung, lesion: several types, types named in the paper, dosed 76 weeks, study length 76 weeks) was “negative (inactive)”, the TD50 (mouse, strain Charles River CD1, females, in feed, site: liver, lesion: basophil adenoma, dosed 79 weeks, study length 79 weeks) was 4540 mg/kg/day and the TD50 (mouse, strain Charles River CD1, females, in feed, site: liver, lesion: eosinophilic adenoma, dosed 79 weeks, study length 79 weeks) was 1120 mg/kg/day. The TD50 (mouse, strain Charles River CD1, females, in feed, site: liver, lesion: hepatocellular adenoma, dosed 52 weeks, study length 52 weeks) was 2380 mg/kg/day, the TD50 (mouse, strain Charles River CD1, females, in feed, site: liver, lesion: hepatocellular adenoma, dosed 79 weeks, study length 79 weeks) was 825 mg/kg/day and the TD50 (mouse, strain Charles River CD1, females, in feed, site: liver, lesion: hepatocellular carcinoma, dosed 52 weeks, study length 52 weeks) was 756 mg/kg/day. It also gave a TD50 (mouse, strain Charles River CD1, females, in feed, site: liver, lesion: several types, types named in the paper, dosed 52 weeks, study length 52 weeks) of 516 mg/kg/day, a TD50 (mouse, strain Charles River CD1, males, in feed, site: liver, lesion: basophil adenoma, dosed 79 weeks, study length 79 weeks) of 844 mg/kg/day and a TD50 (mouse, strain Charles River CD1, males, in feed, site: liver, lesion: eosinophilic adenoma, dosed 79 weeks, study length 79 weeks) of 355 mg/kg/day. The TD50 (mouse, strain Charles River CD1, males, in feed, site: liver, lesion: hepatocellular adenoma, dosed 52 weeks, study length 52 weeks) was 1060 mg/kg/day, the TD50 (mouse, strain Charles River CD1, males, in feed, site: liver, lesion: hepatocellular adenoma, dosed 79 weeks, study length 79 weeks) was 160 mg/kg/day and the TD50 (mouse, strain Charles River CD1, males, in feed, site: liver, lesion: hepatocellular carcinoma, dosed 52 weeks, study length 52 weeks) was 410 mg/kg/day. The TD50 (mouse, strain Charles River CD1, males, in feed, site: liver, lesion: hepatocellular carcinoma, dosed 79 weeks, study length 79 weeks) was 3470 mg/kg/day, the TD50 (mouse, strain Charles River CD1, males, in feed, site: liver, lesion: mixed cell adenoma, dosed 79 weeks, study length 79 weeks) was 2630 mg/kg/day and the TD50 (mouse, strain Charles River CD1, males, in feed, site: liver, lesion: several types, types named in the paper, dosed 52 weeks, study length 52 weeks) was 229 mg/kg/day. The TD50 (rat, strain Charles River CD (Sprague-Dawley), females, in feed, site: liver, lesion: hepatocellular carcinoma, dosed 104 weeks, study length 104 weeks) was 12800 mg/kg/day (inactive), the TD50 (rat, strain Charles River CD (Sprague-Dawley), males, in feed, site: liver, lesion: hepatocellular adenoma, dosed 104 weeks, study length 104 weeks) was 12800 mg/kg/day (inactive) and the TD50 (rat, strain Charles River CD (Sprague-Dawley), males, in feed, site: liver, lesion: hepatocellular carcinoma, dosed 104 weeks, study length 104 weeks) was 78500 mg/kg/day (inactive). For the same compound, the carcinogen call (rat, strain F344/DuCrj, females, in feed, site: any site (literature study), lesion: several types, types named in the paper, dosed 104 weeks, study length 110 weeks) was “negative (inactive)”, the TD50 (rat, strain F344/DuCrj, females, in feed, site: liver, lesion: cholangioma, cystic, dosed 96 weeks, study length 96 weeks) was 19100 mg/kg/day and the TD50 (rat, strain F344/DuCrj, females, in feed, site: liver, lesion: hepatocellular adenoma, dosed 96 weeks, study length 96 weeks) was 2460 mg/kg/day. For the same compound, the TD50 (rat, strain F344/DuCrj, females, in feed, site: liver, lesion: hepatocellular carcinoma, dosed 96 weeks, study length 96 weeks) was 2220 mg/kg/day, the TD50 (rat, strain F344/DuCrj, females, in feed, site: liver, lesion: hepatocellular tumor, dosed 96 weeks, study length 96 weeks) was 977 mg/kg/day and the carcinogen call (rat, strain F344/DuCrj, females, in feed, site: liver, lesion: neoplastic nodule, dosed 104 weeks, study length 110 weeks) was “negative (inactive)”. The carcinogen call (rat, strain F344/DuCrj, males, in feed, site: any site (literature study), lesion: several types, types named in the paper, dosed 104 weeks, study length 110 weeks) was “negative (inactive)”, the TD50 (rat, strain F344/DuCrj, males, in feed, site: liver, lesion: cholangioma, cystic, dosed 95 weeks, study length 95 weeks) was 30200 mg/kg/day and the TD50 (rat, strain F344/DuCrj, males, in feed, site: liver, lesion: hepatocellular adenoma, dosed 95 weeks, study length 95 weeks) was 1400 mg/kg/day. For the same compound, the TD50 (rat, strain F344/DuCrj, males, in feed, site: liver, lesion: hepatocellular carcinoma, dosed 95 weeks, study length 95 weeks) was 806 mg/kg/day, the TD50 (rat, strain F344/DuCrj, males, in feed, site: liver, lesion: hepatocellular carcinoma, dosed 104 weeks, study length 110 weeks) was 20100 mg/kg/day (inactive) and the TD50 (rat, strain F344/DuCrj, males, in feed, site: liver, lesion: hepatocellular tumor, dosed 95 weeks, study length 95 weeks) was 468 mg/kg/day. The TD50 (rat, strain F344/DuCrj, males, in feed, site: liver, lesion: neoplastic nodule, dosed 104 weeks, study length 110 weeks) was 7690 mg/kg/day (inactive), the TD50 (rat, strain Fischer 344, females, in feed, site: all sites, lesion: lymphoma, dosed 107 weeks, study length 107 weeks) was 1180 mg/kg/day (inactive) and the TD50 (rat, strain Fischer 344, females, in feed, site: any site (literature study), lesion: several types, types named in the paper, dosed 107 weeks, study length 107 weeks) was 7820 mg/kg/day. For the same compound, the carcinogen call (rat, strain Fischer 344, males, in feed, site: any site (literature study), lesion: several types, types named in the paper, dosed 107 weeks, study length 107 weeks) was “negative (inactive)”, the TD50 (rat, strain Wistar, both sexes, in feed, site: liver, lesion: hepatocellular carcinoma, dosed 95 weeks, study length 104 weeks) was 26100 mg/kg/day (inactive) and the TD50 (rat, strain Wistar, both sexes, in feed, site: liver, lesion: hepatoma, dosed 95 weeks, study length 104 weeks) was 22500 mg/kg/day (inactive).
